Source: ChEMBL document CHEMBL1152576, “E-Combretastatin and E-resveratrol structural modifications: antimicrobial and cancer cell growth inhibitory beta-E-nitrostyrenes” (Bioorg Med Chem, 2009)
In brackets after ≈: the same amount, converted by molar mass. Activity calls are given as the source filed them. The calls are words filed in the database; no cut-off is given here.

Assays:
[1] = tested on: P388; assay: Cytotoxicity against mouse P388 cells after 48 hrs by sulforhodamine B assay; type: functional; settings: for EC50: P388, 48 h, read-out: ED50 (the source's name)
[2] = tested on: BXPC-3; assay: Cytotoxicity against human BxPC3 cells after 48 hrs by sulforhodamine B assay; type: functional
[3] = tested on: MCF7; assay: Cytotoxicity against human MCF7 cells after 48 hrs by sulforhodamine B assay; type: functional
[4] = tested on: SF-295; assay: Cytotoxicity against human SF295 cells after 48 hrs by sulforhodamine B assay; type: functional
[5] = tested on: SF-268; assay: Cytotoxicity against human SF268 cells after 48 hrs by sulforhodamine B assay; type: functional
[6] = tested on: NCI-H460; assay: Cytotoxicity against human NCI-H460 cells after 48 hrs by sulforhodamine B assay; type: functional
[7] = tested on: KM-20L2; assay: Cytotoxicity against human KM20L2 cells after 48 hrs by sulforhodamine B assay; type: functional
[8] = tested on: DU-145; assay: Cytotoxicity against human DU145 cells after 48 hrs by sulforhodamine B assay; type: functional
[9] = tested on: SK-MEL-5; assay: Cytotoxicity against human SK-MEL-5 cells after 48 hrs by sulforhodamine B assay; type: functional
[10] = tested on: OVCAR-3; assay: Cytotoxicity against human OVCAR-3 cells after 48 hrs by sulforhodamine B assay; type: functional
[11] = tested on: A498; assay: Cytotoxicity against human A498 cells after 48 hrs by sulforhodamine B assay; type: functional
[12] = Inhibition of tubulin polymerization
[13] = tested on: Candida albicans; assay: Antimicrobial activity against Candida albicans ATCC 90028 assessed clear zone in inhibition per disk by CLSI disk diffusion susceptibility assay; type: functional
[14] = tested on: Cryptococcus neoformans; assay: Antimicrobial activity against Cryptococcus neoformans ATCC 90112 assessed clear zone in inhibition per disk by CLSI disk diffusion susceptibility assay; type: functional
[15] = tested on: Staphylococcus aureus; assay: Antimicrobial activity against Staphylococcus aureus ATCC 29213 assessed clear zone in inhibition per disk by CLSI disk diffusion susceptibility assay; type: functional
[16] = tested on: Streptococcus pneumoniae; assay: Antimicrobial activity against Streptococcus pneumoniae ATCC 6303 assessed clear zone in inhibition per disk by CLSI disk diffusion susceptibility assay; type: functional
[17] = tested on: Enterococcus faecalis; assay: Antimicrobial activity against Enterococcus faecalis ATCC 29212 assessed clear zone in inhibition per disk by CLSI disk diffusion susceptibility assay; type: functional
[18] = tested on: Micrococcus luteus; assay: Antimicrobial activity against Micrococcus luteus Presque Isle 456 assessed clear zone in inhibition per disk by CLSI disk diffusion susceptibility assay; type: functional
[19] = tested on: Stenotrophomonas maltophilia; assay: Antimicrobial activity against Stenotrophomonas maltophilia ATCC 13637 assessed clear zone in inhibition per disk by CLSI disk diffusion susceptibility assay; type: functional
[20] = tested on: Escherichia coli; assay: Antimicrobial activity against Escherichia coli ATCC 25922 assessed clear zone in inhibition per disk by CLSI disk diffusion susceptibility assay; type: functional
[21] = tested on: Enterobacter cloacae; assay: Antimicrobial activity against Enterobacter cloacae ATCC 13047 assessed clear zone in inhibition per disk by CLSI disk diffusion susceptibility assay; type: functional
[22] = tested on: Neisseria gonorrhoeae; assay: Antimicrobial activity against Neisseria gonorrhoeae ATCC 49226 assessed clear zone of inhibition measured per disk by CLSI disk diffusion susceptibility assay; type: functional
[23] = tested on: Candida albicans; assay: Antifungal activity against Candida albicans ATCC 90028 after 48 hrs by broth microdilution susceptibility assay; type: functional; settings: ATCC 90028, 48 h
[24] = tested on: Cryptococcus neoformans; assay: Antifungal activity against Cryptococcus neoformans ATCC 90112 after 72 hrs by broth microdilution susceptibility assay; type: functional; settings: ATCC 90112, 72 h
[25] = tested on: Staphylococcus aureus; assay: Antimicrobial activity against Staphylococcus aureus ATCC 29213 by broth microdilution susceptibility assay; type: functional
[26] = tested on: Streptococcus pneumoniae; assay: Antimicrobial activity against Streptococcus pneumoniae ATCC 6303 by broth microdilution susceptibility assay; type: functional
[27] = tested on: Enterococcus faecalis; assay: Antimicrobial activity against Enterococcus faecalis ATCC 29212 by broth microdilution susceptibility assay; type: functional
[28] = tested on: Micrococcus luteus; assay: Antimicrobial activity against Micrococcus luteus Presque Isle 456 by broth microdilution susceptibility assay; type: functional
[29] = tested on: Stenotrophomonas maltophilia; assay: Antimicrobial activity against Stenotrophomonas maltophilia ATCC 13637 by broth microdilution susceptibility assay; type: functional
[30] = tested on: Escherichia coli; assay: Antimicrobial activity against Escherichia coli ATCC 25922 by broth microdilution susceptibility assay; type: functional
[31] = tested on: Enterobacter cloacae; assay: Antimicrobial activity against Enterobacter cloacae ATCC 13047 by broth microdilution susceptibility assay; type: functional
[32] = tested on: Neisseria gonorrhoeae; assay: Antimicrobial activity against Neisseria gonorrhoeae ATCC 49226 by broth microdilution susceptibility assay; type: functional
[33] = tested on: Candida albicans; assay: Antifungal activity against Candida albicans ATCC 90028 after 24 hrs by broth microdilution susceptibility assay; type: functional; settings: ATCC 90028, 24 h
[34] = tested on: Cryptococcus neoformans; assay: Antifungal activity against Cryptococcus neoformans ATCC 90112 after 48 hrs by broth microdilution susceptibility assay; type: functional; settings: ATCC 90112, 48 h
[35] = tested on: Neisseria gonorrhoeae; assay: Antimicrobial activity against Neisseria gonorrhoeae ATCC 49226 after 24 hrs by broth microdilution susceptibility assay; type: functional; settings: ATCC 49226, 24 h

Structure (SMILES)	EC50 [1]	GI50 ([2]; BXPC-3, 48 h)	GI50 ([4]; SF-295, 48 h)	GI50 [5]	GI50 ([6]; NCI-H460, 48 h)	GI50 ([7]; KM-20L2, 48 h)	GI50 ([8]; DU-145, 48 h)	GI50 [9]	GI50 [11]	IC50 [12]	MIC [13]	MIC [14]	MIC [15]	MIC [16]	MIC [17]	MIC [18]	MIC [19]	MIC [20]	MIC [21]	MIC [22]	other results
COc1ccc(/C=C/[N+](=O)[O-])cc1	1.7 µg/mL (≈ 9.49 µM)	1.8 µg/mL (≈ 10 µM)	1.6 µg/mL (≈ 8.93 µM)	inactive	1.7 µg/mL (≈ 9.49 µM)	1.5 µg/mL (≈ 8.37 µM)	1.7 µg/mL (≈ 9.49 µM)	inactive	inactive	5.7 µM	3.12 µg	1.56 µg	12.5 µg	6.25 µg	50 µg	50 µg	12.5 µg	6.25 µg	12.5 µg	0.78 µg	GI50 ([3]; MCF7, 48 h): 0.54 µg/mL (≈ 3.01 µM); GI50 [10]: inactive; MIC [23]: 8 µg/mL (≈ 44.6 µM); MIC [24]: 16 µg/mL (≈ 89.3 µM); MIC [25]: > 64 µg/mL; MIC [26]: > 64 µg/mL; MIC [27]: > 64 µg/mL; MIC [28]: > 64 µg/mL; MIC [29]: > 64 µg/mL; MIC [30]: > 64 µg/mL; MIC [31]: > 64 µg/mL; MIC [32]: 2 µg/mL (≈ 11.2 µM); MFC [33]: 16 µg/mL (≈ 89.3 µM); MFC [34]: 16 µg/mL (≈ 89.3 µM); MBC [35]: 2 µg/mL (≈ 11.2 µM)
O=[N+]([O-])/C=C/c1ccc(O)cc1	1.5 µg/mL (≈ 9.08 µM)	1.6 µg/mL (≈ 9.69 µM)	1.7 µg/mL (≈ 10.3 µM)	inactive	1.7 µg/mL (≈ 10.3 µM)	1.5 µg/mL (≈ 9.08 µM)	1.5 µg/mL (≈ 9.08 µM)	inactive	inactive	10 µM	12.5 µg	6.25 µg	50 µg	6.25 µg	6.25 µg	>100 µg	6.25 µg	12.5 µg	25 µg	<0.78 µg	GI50 ([3]; MCF7, 48 h): 0.48 µg/mL (≈ 2.91 µM); GI50 [10]: inactive; MIC [23]: 16 µg/mL (≈ 96.9 µM); MIC [24]: 8 µg/mL (≈ 48.4 µM); MIC [25]: > 64 µg/mL; MIC [26]: 64 µg/mL (≈ 388 µM); MIC [27]: > 64 µg/mL; MIC [28]: > 64 µg/mL; MIC [29]: > 64 µg/mL; MIC [30]: > 64 µg/mL; MIC [31]: > 64 µg/mL; MIC [32]: 4 µg/mL (≈ 24.2 µM); MFC [33]: 16 µg/mL (≈ 96.9 µM); MFC [34]: 8 µg/mL (≈ 48.4 µM); MBC [35]: 4 µg/mL (≈ 24.2 µM)
COc1cc(/C=C/[N+](=O)[O-])ccc1O	0.18 µg/mL (≈ 0.922 µM)	1.2 µg/mL (≈ 6.15 µM)	0.37 µg/mL (≈ 1.9 µM)	inactive	0.34 µg/mL (≈ 1.74 µM)	1.1 µg/mL (≈ 5.64 µM)	0.38 µg/mL (≈ 1.95 µM)	inactive	inactive	9.3 µM	6.25 µg	3.12 µg	12.5 µg	3.12 µg	25 µg	50 µg	50 µg	6.25 µg	>100 µg	0.78 µg	GI50 [3]: inactive; GI50 ([10]; OVCAR-3, 48 h): 0.48 µg/mL (≈ 2.46 µM); MIC [23]: 16 µg/mL (≈ 82 µM); MIC [24]: 16 µg/mL (≈ 82 µM); MIC [25]: > 64 µg/mL; MIC [26]: > 64 µg/mL; MIC [27]: > 64 µg/mL; MIC [28]: > 64 µg/mL; MIC [29]: > 64 µg/mL; MIC [30]: > 64 µg/mL; MIC [31]: > 64 µg/mL; MIC [32]: 4 µg/mL (≈ 20.5 µM); MFC [33]: 16 µg/mL (≈ 82 µM); MFC [34]: 16 µg/mL (≈ 82 µM); MBC [35]: 4 µg/mL (≈ 20.5 µM)
CC(=O)Nc1ccc(/C=C/[N+](=O)[O-])cc1	6.2 µg/mL (≈ 30.1 µM)		1.4 µg/mL (≈ 6.79 µM)	inactive	0.7 µg/mL (≈ 3.39 µM)	1.1 µg/mL (≈ 5.33 µM)				11 µM	6.25 µg	<6.25 µg	<6.25 µg	<6.25 µg	>100 µg	>100 µg	>100 µg	>100 µg	>100 µg	<6.25 µg	GI50 [2]: inactive; GI50 [3]: inactive; GI50 [8]: inactive; GI50 ([9]; SK-MEL-5, 48 h): 0.34 µg/mL (≈ 1.65 µM); GI50 ([10]; OVCAR-3, 48 h): 0.65 µg/mL (≈ 3.15 µM); GI50 ([11]; A498, 48 h): 0.96 µg/mL (≈ 4.66 µM)
COc1cc(/C=C/[N+](=O)[O-])cc2c1OCO2				inactive				inactive	inactive	5.6 µM	1.56 µg	3.12 µg	>100 µg	>100 µg	>100 µg	>100 µg	>100 µg	>100 µg	>100 µg	1.56 µg	ED50 [1]: inactive; GI50 [2]: inactive; GI50 [3]: inactive; GI50 [4]: inactive; GI50 [6]: inactive; GI50 [7]: inactive; GI50 [8]: inactive; GI50 [10]: inactive; MIC [23]: > 64 µg/mL; MIC [24]: 64 µg/mL (≈ 287 µM); MIC [25]: > 64 µg/mL; MIC [26]: > 64 µg/mL; MIC [27]: > 64 µg/mL; MIC [28]: > 64 µg/mL; MIC [29]: > 64 µg/mL; MIC [30]: > 64 µg/mL; MIC [31]: > 64 µg/mL; MIC [32]: > 64 µg/mL; MFC [34]: > 64 µg/mL
O=[N+]([O-])/C=C/c1ccc(OP(=O)(OCc2ccccc2)OCc2ccccc2)cc1	7 µg/mL (≈ 16.5 µM)	> 10 µg/mL			> 10 µg/mL	> 10 µg/mL	> 10 µg/mL	inactive	inactive	10 µM	>100 µg	25 µg	3.12 µg	>100 µg	6.25 µg	6.25 µg	>100 µg	>100 µg	>100 µg	0.78 µg	GI50 ([3]; MCF7, 48 h): > 10 µg/mL; GI50 [4]: inactive; GI50 ([5]; SF-268, 48 h): > 10 µg/mL; GI50 [10]: inactive
